Measured values as given in patent US9730906B2, “α-derivatives of cis-monounsaturated fatty acids for use as medicines” (UNIVERSITAT DE LES ILLES BALEARS, priority 2008, dated 2017).

Assays:
[1] = tested on: A549 cells of human lung adenocarcinoma; assay: Prevention of tumour development in nude mice injected with A549 cells; format: in vivo; settings: 400 mg/kg per day oral, 2 weeks before and one month after A549 injection, compared with fatty acids not of Formula I, p<0.05
Text: FIG. 2. Preventative effect of various fatty acids against tumour development. […] Animals received treatment before injection of tumour cells and the treatment was subsequently maintained. Animals of the control group were not treated and the volume of their tumours was taken as the reference value (100%).
To determine whether the fatty acids of the invention have applications in the prevention of the development of tumour processes, an animal cancer model was used. This model consisted of immune-deprived animals ([Crl:Nu(Ico)-Fox 1] nude mice in which non-microcytic human lung cancer cells were injected (5×10^6 A549 cells per animal). The control group (infected with cancer cells but untreated) started to develop tumours that were visible after a few days. The sizes of the tumours were measured for the first time at 10 days after implanting the tumour and measurements continued for up to 31 days after the implantation with a digital calliper. The volume of the tumours was calculated with the following equation: v=w^2×l/2 where v is the volume of the tumour, w is its width and l is the length. Preventative treatments against development of the cancer were applied. To carry out these treatments, 400 mg/kg were administered per day for 2 weeks before the injection of tumour cells. This treatment was continued for one month after the implantation of the tumour cells and the volume of the tumours in the animals was measured. Each experimental group was composed of 8 animals. Oral administration of α-derivatives of cis-monounsaturated fatty acids prevented cancer development (A549 cells of human lung adenocarcinoma) (FIG. 2). […] Therefore it was concluded that the introduction of a double bond in the cis configuration in the structure of the fatty acid is a critical factor in the prevention and treatment by fatty acids of cancer development.

A549 cells = assay: Growth/viability of A549 lung cancer cells in culture (cell count); format: cell-based, human
Procedure: FIG. 3A. Cancer cells (A549) were treated with various concentrations of OHOD and MOD11 to determine whether the effect was dependent on the concentration. […] These cells were treated with different concentrations (0-400 μM) of OHOD and MOD11 and the number of cells was determined by flow cytometry.
FIG. 3B. Cancer cells (A549) were treated with compounds indicated on the horizontal axis for 48 hours at 150 μM. Then, the cells were counted and their number and percent of untreated (control) represented on the vertical axis.
Also, a series of α-derivatives of cis-monounsaturated fatty acids were used to investigate their effectiveness in cancer treatment. Two types of experiment were performed. Firstly, the dependency of the anti-tumour effect on concentration was investigated. To perform these experiments, human lung cancer cells (A549) were cultivated in RPMI medium, supplemented with 10% foetal bovine […], 10 mM Hepes (pH 7.4), 2 mM glutamine, 2 g/l bicarbonate, 1 g/l glucose, 100 units/ml penicillin, 0.1 mg/ml streptomycin, 0.25 μg/ml Amphotericin B, at 37° C. and in the presence of 5% CO2. In a first experimental series, these cells were treated with various concentrations (0-400 μM) of OHOD and MOD11 and the number of cells was determined by flow cytometry (FIG. 3A). […] In a second series, the anti-tumour effectiveness on A549 lung cancer cells was investigated at a single concentration (150 μM) and a time of 48 hours (FIG. 3B). […] Obviously, among the previous molecules, some lacked both modifications on the α-carbon and the double bond in cis configuration (EO, HDO, ODO) and had no therapeutic effect. […]

[2] = Rat obesity induced by cafeteria diet, preventative pre-treatment (Table 3); format: in vivo, Wistar Kyoto rats; settings: 300 mg/kg oral, after two weeks on cafeteria diet; obese control 308 ± 17, lean control 280 ± 16; * lower than obese controls, ‡ indistinguishable
Procedure: (§1) In a further experiment, the effect of various molecules at a single dose (600 mg/kg) was investigated. […] In this sense, modification on the α-carbon and the double bond in cis configuration are crucial elements for producing the therapeutic effect indicated above. […] Finally, the effect of α-derivatives of cis-monounsaturated fatty acids on the prevention of obesity was investigated. For this, a model of rat obesity induced by a cafeteria diet, where the hypercaloric food increases the weight of the animals very markedly, was used. There were various experimental groups (see Table 3), each of which consisted of 6 female Wistar Kyoto rats of 250-300 g in weight. All the animals received a standard diet for 2 weeks. In addition, 2 of the groups received an oral preventative pre-treatment of vehicle and the other groups received 300 mg/kg of the fatty acids indicated below. Afterwards, one of the control groups was maintained on a standard diet (lean control) and the other was fed on a cafeteria diet (obese control). The treated animal groups were fed on the cafeteria diet. Preventative pre-treatment was maintained for all the groups. After two weeks on these diets, the lean control group had increased their body weight by an average of 16±16 g, while the obese control group had increased their body weight by an average of 43±17 g (statistically significance difference, p<0.01).
(§2) The weight of treated animals was statistically less than the weight of obese control rats and statistically indistinguishable from that of lean control rats.

[3] = molecular target: T1, cyclooxygenases-1 (COX-1) (Homo sapiens, UniProt P23219); assay: COX-1 activity in U937 differentiated monocytes (Cayman COX-1 inhibitor screening system); format: cell-based; settings: 250 μM, 6 hours; compared with fatty acids not of Formula I, p<0.05
T1 construct: endogenous in cells; host or cells: U937 differentiated monocytes
T1 sequence (P23219 24-599): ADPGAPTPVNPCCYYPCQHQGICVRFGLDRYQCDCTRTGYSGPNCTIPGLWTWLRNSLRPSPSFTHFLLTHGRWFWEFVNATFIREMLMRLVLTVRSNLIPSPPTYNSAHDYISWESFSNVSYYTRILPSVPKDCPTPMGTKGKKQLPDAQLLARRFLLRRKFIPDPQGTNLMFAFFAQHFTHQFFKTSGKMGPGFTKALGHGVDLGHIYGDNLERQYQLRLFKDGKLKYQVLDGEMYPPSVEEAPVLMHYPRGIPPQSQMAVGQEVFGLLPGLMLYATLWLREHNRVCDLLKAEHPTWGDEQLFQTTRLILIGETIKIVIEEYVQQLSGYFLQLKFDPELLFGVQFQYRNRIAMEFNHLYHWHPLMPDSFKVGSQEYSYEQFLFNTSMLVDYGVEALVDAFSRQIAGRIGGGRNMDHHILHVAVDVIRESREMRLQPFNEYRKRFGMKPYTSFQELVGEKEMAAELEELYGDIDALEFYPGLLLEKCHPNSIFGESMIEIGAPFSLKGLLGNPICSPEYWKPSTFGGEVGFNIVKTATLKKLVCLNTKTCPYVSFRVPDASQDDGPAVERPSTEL
Procedure: FIG. 19A. Effect of various fatty acids in the inhibition of the activity of cyclooxygenases-1 (COX-1) (Cayman COX-1 inhibitor screening system). […] Cell cultures (U937 differentiated monocytes) were treated with the fatty acids of the invention (250 μM, 6 hours).
(§3) In an additional study on the release of various proinflammatory cytokines (IL-1b, IL-6, IL-8, IL-10) and TNF-α in U937 monocytes stimulated with bacterial lipopolysaccharide (LPS), a marked reduction in the levels of these molecules was observed after treatments with OHHD at a concentration of 250 μM and 72 h incubation (Table 4). The effect of the α-derivatives of cis-monounsaturated fatty acids (250 μM, 6 h) on the activity and expression of the COX-1 and COX-2 cyclooxygenases was investigated in the same system.

cyclooxygenase-2 (COX-2) = assay: Cellular concentration of COX-2 in U937 differentiated monocytes (immunoblot); format: cell-based, human; settings: 250 μM, 6 hours; compared with fatty acids not of Formula I, p<0.05
Procedure: FIG. 19B. Effect of various fatty acids in the inhibition (concentration of protein) of cyclooxygenase-2 (immunoblot of COX-2). […] Cell cultures (U937 differentiated monocytes) were treated with the fatty acids of the invention (250 μM, 6 hours).
as §3

SF767 human tumour cells = assay: Growth of SF767 tumour cells in culture; format: cell-based; settings: concentration that reduces the number of cells to half
Procedure: In a second experimental series, designed to discover whether these molecules are effective in treatment of different types of tumours, the effect of OHOD at various concentrations on human cells of different types of cancer was studied. These experiments were performed as described before, except that the M220 and HT-29 cell lines were cultured in DMEM medium and the MDA-MB-231 line was incubated in Leibowitz L-15 medium supplemented with 15% foetal bovine […]. […] Where the nature of the tumour process requires, application can be topical (use on the skin of active products for the treatment of melanoma and other cutaneous abnormalities of cancerous nature), which can be considered as cosmetic treatments when attempts are made to correct aesthetic defects.

[4] = tested on: SF767 human brain cancer cells; assay: Tumour volume in nude mice infected with SF767 human brain cancer cells; format: in vivo; settings: 600 mg/kg daily for 50 days, p<0.001 vs control
Procedure: FIG. 6A. Effect of different salts of OHOD on human lung cancer in an animal cancer model. The volume of tumours in nude mice infected with SF767 human brain cancer cells (expressed as a percent compared to control) receiving various treatments. The animals received a vehicle (water: Control), 600 mg/kg of OHOD in the form of free fatty acid (OHOD), 600 mg/kg of sodium salt of OHOD (Na-OHOD) or 600 mg/kg of ammonium salt of OHOD (NH3OHOD) daily for 50 days.
FIG. 6B. Effect of different salts of OHOD on human lung cancer in an animal cancer model. The effect of different doses of sodium salt of OHOD (Na-OHOD) are shown on tumour volumes in mice infected with SF767 cells and treated with vehicle (control, 0 mg/kg), 100 mg/kg (100), 200 mg/kg (200), 400 mg/kg (400) and 600 mg/kg (600) for 50 days. * p<0.05; ***p<0.001.
One important characteristic of the molecules covered in the present invention is that they can form various types of salts. FIG. 6A and Table 5 show the therapeutic effects of various α-derivatives of cis-monounsaturated fatty acids and their salts. […] The specificity of this effect is determined by the relation between the dose and the effect these molecules have on the volume of human tumours implanted in animals (FIG. 6B).

hypertensive rats = assay: Arterial pressure in hypertensive rats after 8-day treatment (Table 5); format: in vivo, rat; settings: arterial pressure, hypertensive rats, 8-day treatment, 400 mg/kg oral
[5] = Levels of cholesterol, triglycerides and glucose in rats after oral treatment; format: in vivo, rat; settings: rats, daily dose of 600 mg/kg oral; untreated controls = 100%
Procedure: FIG. 13. The four bars, from left to right respectively, show the effect of treatments with vehicle (control, first bar), OHOD at 200 mg/kg (second bar), OHOD at 400 mg/kg (third bar) and OHOD at 600 mg/kg (fourth bar) on the cholesterol levels (group of four bars to the left), triglycerides (group of four bars in the middle) and glucose (group of four bars to the right). The treatments were oral in all cases and were maintained for 30 days. The values indicated are the average obtained in 6 animals per group.
FIG. 14. Effect of treatment with vehicle (control) or with the fatty acids of the invention (600 mg/kg) on the levels of cholesterol, triglycerides and glucose. The values indicated are the average of the values obtained in 6 animals. Each group of three bars represents treatment with a different fatty acid with the left bar corresponding to cholesterol, the middle bar to triglycerides and the right bar to glucose.
Metabolic diseases form a set of pathologies characterised by the accumulation or deficit of certain molecules (cholesterol, triglycerides, glucose, etc.) in the serum or tissues. These changes are the reflection of dysfunctions that are normally associated with errors in the activity of certain enzymes or in the control of these proteins. Among the most important metabolopathies are hypercholesterolemia (elevated levels of cholesterol), hypertriglyceridemia (elevated levels of triglycerides) and diabetes (elevated levels of glucose). These pathologies have high rates of incidence, morbidity and mortality, so that treatment is a first order necessity. […] For these experiments, the dose of fatty acid indicated (0, 200, 400 and 600 mg/kg) was supplied daily via the oral route. At the end of the treatment (30 days), blood was sampled from control and treated animals (n=6) and the levels of cholesterol, triglycerides and glucose were determined using standard colorimetric methods.
as §1

[6] = Body weight of rats on cafeteria diet, no pre-treatment (Table 5); format: in vivo, rat; settings: cafeteria diet for 2 weeks, 300 mg/kg daily oral, no pre-treatment
Text: as §2

IL-6 = assay: Proinflammatory cytokines in U937 monocytes stimulated with LPS; format: cell-based, human; settings: 250 μM, 72 h; Control 24 ± 3, LPS 1072 ± 4
Procedure: (§4) FIG. 18. Levels of interleukin 6 IL-6 (left bar) and […] TNF-α (right bar) in human monocytes in the absence (control) or presence of a pro-inflammatory treatment with bacterial lipopolysaccharide (LPS). Cells treated with LPS were cultured in the absence (Control+LPS) or presence of various fatty acids shown on the horizontal axis.
as §3

TNF-α = assay: as above; format: cell-based, human; settings: 250 μM, 72 h; Control 15 ± 6, LPS 1504 ± 7
Procedure: as §4, §3

IL-10 = assay: as above; format: cell-based, human; settings: 250 μM, 72 h; Control 32 ± 1, LPS 315 ± 9
Procedure: as §3

IL-1b = assay: as above; format: cell-based, human; settings: 250 μM, 72 h; Control 12 ± 2, LPS 132 ± 2
Procedure: as §3

IL-8 = assay: as above; format: cell-based, human; settings: 250 μM, 72 h; Control 345 ± 7, LPS 967 ± 8
Procedure: as §3

Row | Compound | tumour volume (prevention of tumour development) [1] | effect on tumour cells at 200 to 400 μM (A549 cells; Doses of 200 to 400 μM, A549) | Final weight [2] | inhibition of COX-1 activity (% of control) [3] | cellular concentration of COX-2 (% of control) (cyclooxygenase-2 (COX-2)) | IC50 (A549 cells; concentration that reduces the number of cells to half) [µM] | IC50 (SF767 human tumour cells) [µM] | volume of tumours (percent compared to control) [4] | PA (control 214 mmHg) (hypertensive rats) [mmHg] | % control CHO (cholesterol) [5] [% control] | % control TG (triglycerides) [5] [% control] | Body weight (g) (control = 311 g) [6] | IL-6, LPS + OHHD (IL-6) [pg/mL] | TNF-α, LPS + OHHD (TNF-α) [pg/mL] | IL-10, LPS + OHHD (IL-10) [pg/mL] | IL-1b, LPS + OHHD (IL-1b) [pg/mL] | IL-8, LPS + OHHD (IL-8) [pg/mL]
1 | CCCCCC/C=C\CCCCCCCCC(C)C(=O)O (stereo not drawn) [MOD11, α-Methyl-cis-Δ11-octadecenoic] | more significant effect | total elimination of tumour cells | 274 ± 18* g | more significant effect | more significant effect | – | – | – | – | – | – | – | – | – | – | – | –
2 | CCCCCCCC/C=C\CCCCCCC(O)C(=O)O.N (stereo not drawn) [NH3-OHOD] | – | – | – | – | – | 81 | 85 | significant reductions in the size of tumours | 149 | 59 | 62 | 290 | – | – | – | – | –
3 | CCCCCC/C=C\CCCCCCC(O)C(=O)O (stereo not drawn) [OHHD, α-Hydroxy-cis-Δ9-hexadecenoic] | more significant effect | – | 275 ± 19* g | more significant effect | more significant effect | – | – | – | – | – | – | – | 68 ± 8 | 65 ± 9 | 53 ± 3 | 41 ± 5 | 529 ± 7
